Paper PMC10780633, “Novel Multi-Target Agents Based on the Privileged Structure of 4-Hydroxy-2-quinolinone” (Molecules, 2023)
pIC50: −log10 of the molar value.

How the values were obtained:
[1] = Non-enzymatic superoxide anion radical scavenging assay (PMS); conditions: 0.1 mM
Description: (§1) In this work, the carboxamides 3a–3u, the quinolinone–cinnamic or benzoic acid hybrids 11a–11g and the reverse amides 16a–16c were tested for their antioxidant activity via five in vitro techniques; (i) the interaction with the stable free radical 2,2-diphenyl-1-picrylhydrazyl (DPPH); (ii) the inhibition of lipid peroxidation; (iii) the hydroxyl radical scavenging ability; (iv) the 2,2-azino-bis(3-ethylbenzothiazoline-6-sulfonic acid (ABTS) radical cation (ABTS·^+) reduction; and (v) the superoxide anion radical scavenging ability.
The experimental technique used for this assay was performed according to our previous works. Caffeic acid was used as an appropriate standard.

[2] = Interaction with the stable free radical DPPH (reducing activity); conditions: 100 μM
Description: as §1

[3] = Inhibition of lipid peroxidation of linoleic acid induced by AAPH radical; conditions: 100 μM
Description: as §1
The assay for the determination of the inhibition of linoleic acid peroxidation induced by the free radical initiator […](2-amidinopropane) dihydrochloride (AAPH) was performed according to the methods of Hadjipavlou-Litina et al., which we have also used in our previous works.

[4] = molecular target: T1, soybean lipoxygenase (Glycine max, UniProt P08170); assay: Soybean LOX inhibition in vitro (UV absorbance-based assay); format: biochemical
T1 construct: purchased Sigma Chemical, Co. (St. Louis, MO, USA)
T1 sequence (P08170 1-839): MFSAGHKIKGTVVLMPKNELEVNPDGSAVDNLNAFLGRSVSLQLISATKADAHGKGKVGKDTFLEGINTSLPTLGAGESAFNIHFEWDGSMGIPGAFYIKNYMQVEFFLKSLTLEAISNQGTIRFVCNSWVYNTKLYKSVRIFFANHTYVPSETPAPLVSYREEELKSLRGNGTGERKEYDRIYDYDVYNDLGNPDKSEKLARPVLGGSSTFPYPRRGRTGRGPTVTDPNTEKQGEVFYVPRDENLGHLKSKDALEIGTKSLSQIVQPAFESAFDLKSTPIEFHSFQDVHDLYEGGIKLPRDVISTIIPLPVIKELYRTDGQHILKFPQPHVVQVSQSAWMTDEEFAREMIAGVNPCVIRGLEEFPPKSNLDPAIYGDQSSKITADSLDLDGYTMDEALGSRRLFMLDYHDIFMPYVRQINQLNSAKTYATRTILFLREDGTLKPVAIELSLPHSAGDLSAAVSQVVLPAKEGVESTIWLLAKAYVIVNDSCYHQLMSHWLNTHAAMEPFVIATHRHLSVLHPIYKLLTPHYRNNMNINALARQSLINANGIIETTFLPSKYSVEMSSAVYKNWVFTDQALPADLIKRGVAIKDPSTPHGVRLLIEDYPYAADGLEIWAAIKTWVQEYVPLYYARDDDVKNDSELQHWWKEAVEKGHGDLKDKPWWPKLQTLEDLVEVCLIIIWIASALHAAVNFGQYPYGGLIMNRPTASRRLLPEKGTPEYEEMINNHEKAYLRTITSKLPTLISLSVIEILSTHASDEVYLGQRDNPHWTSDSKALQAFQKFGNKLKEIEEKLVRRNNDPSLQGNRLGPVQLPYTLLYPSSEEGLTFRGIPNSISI
Description: For this study, the UV absorbance-based soybean LOX assay was used.
The assay for the determination of the inhibition of soybean LOX was performed according to the methods of Hadjipavlou-Litina et al., which we have also used in our previous works.

[5] = ABTS radical cation decolorization assay; conditions: 0.1 mM
Description: as §1
The experimental technique used in this section was performed according to the methods of Pontiki et al.. The results were compared to the appropriate standard inhibitor Trolox.

[6] = Competition with DMSO for hydroxyl radicals; conditions: 0.1 mM
Description: as §1
The assay was performed according to the methods of Pontiki et al. Trolox was used as a reference compound [78].

Row | Compound | PMS% (superoxide anion radical scavenging) [1] | Interaction with the Free Radical DPPH (%) ([2]; 20 min) | Interaction with the Free Radical DPPH (%) ([2]; 60 min) | Inhibition of Lipid Peroxidation of Linoleic Acid Induced by AAPH Radical (%) [3] [%] | Inhibition of Soybean Lipoxygenase % at 0.1 mM ([4]; 0.1 mM) | ABTS% (ABTS radical cation decolorization) [5] | OH% (hydroxyl radical scavenging) [6] [%] | pIC50 [4] | inhibition at 100 µM ([4]; 0.1 mM) [%]
1 | 4-hydroxy-N-(2-hydroxy-1-phenylethyl)-1-methyl-2-oxo-1,2-dihydroquinoline-3-carboxamide [Compound 3p] | no | 19.5% | 6.6% | 100 | no | no |  |  | 
2 | 4-hydroxy-N-(2-hydroxy-1-phenylethyl)-2-oxo-1-phenyl-1,2-dihydroquinoline-3-carboxamide [Compound 3q] | no | 23.8% | 10.0% | 100 | 24.0% | no |  |  | 
3 | O=C(O)/C=C/c1ccc(O)c(O)c1 [Caffeic acid, reference compound] | 23% |  |  |  |  |  |  |  | 
4 | Cn1c(=O)c(C(=O)Nc2ccc(O)cc2)c(O)c2ccccc21 [Compound 3f, 4-hydroxy-N-(4-hydroxyphenyl)-1-methyl-2-oxo-1,2-dihydroquinoline-3-carboxamide] |  | 39.3% | 48.6% | 100 |  | 77.3% | 67.7 | 4.31 | 
5 | O=C(Nc1ccncc1)c1c(O)c2ccccc2n(-c2ccccc2)c1=O [Compound 3u, 4-hydroxy-2-oxo-1-phenyl-N-(pyridin-4-yl)-1,2-dihydroquinoline-3-carboxamide] | no | 19.3% | 8.3% | 16.4 | inactive and no | no |  |  | 
6 | CCn1c(=O)c(C(=O)NCCNC(=O)c2ccc(OC(C)=O)cc2)c(O)c2ccccc21 [Compound 11a, 4-((2-(1-ethyl-4-hydroxy-2-oxo-1,2-dihydroquinoline-3-carboxamido)ethyl)carbamoyl)phenyl acetate] |  | 1.0% | 4.4% | 89.0 |  |  |  | 4.21 | 
7 | CCn1c(=O)c(C(=O)NCCNC(=O)c2cc(OC)c(OC(C)=O)c(OC)c2)c(O)c2ccccc21 [Compound 11b, 4-((2-(1-ethyl-4-hydroxy-2-oxo-1,2-dihydroquinoline-3-carboxamido)ethyl)carbamoyl)-2,6-dimethoxyphenyl acetate] |  | 3.0% | no | 93.8 |  |  |  | 4.15 | 
8 | CCn1c(=O)c(C(=O)NCCNC(=O)c2ccccc2)c(O)c2ccccc21 [Compound 11c, N-(2-benzamidoethyl)-1-ethyl-4-hydroxy-2-oxo-1,2-dihydroquinoline-3-carboxamide] |  | 2.0% | 2.0% | 91.0 |  |  |  | 4.24 | 
9 | CCn1c(=O)c(C(=O)NCCNC(=O)/C=C/c2ccc(OC(C)=O)cc2)c(O)c2ccccc21 [Compound 11d, (E)-4-(3-((2-(1-ethyl-4-hydroxy-2-oxo-1,2-dihydroquinoline-3-carboxamido)ethyl)amino)-3-oxoprop-1-en-1-yl)phenyl acetate] |  | 3.0% | 2.0% | 94.0 |  |  |  |  | 5
10 | CCn1c(=O)c(C(=O)NCCNC(=O)/C=C/c2ccc(OC(C)=O)c(OC)c2)c(O)c2ccccc21 [Compound 11e, (E)-4-(3-((2-(1-ethyl-4-hydroxy-2-oxo-1,2-dihydroquinoline-3-carboxamido)ethyl)amino)-3-oxoprop-1-en-1-yl)-2-methoxyphenyl acetate] |  | 3.0% | 5.0% | 97.0 |  |  |  | 4.28 | 
11 | CCn1c(=O)c(C(=O)NCCNC(=O)/C=C/c2ccc(OC)cc2)c(O)c2ccccc21 [Compound 11f, (E)-1-ethyl-4-hydroxy-N-(2-(3-(4-methoxyphenyl)acrylamido)ethyl)-2-oxo-1,2-dihydroquinoline-3-carboxamide] |  | 2.0% | 4.0% | 93.0 |  |  |  | 4.15 | 
12 | CCn1c(=O)c(C(=O)NCCNC(=O)/C=C/c2ccccc2)c(O)c2ccccc21 [Compound 11g, (E)-N-(2-cinnamamidoethyl)-1-ethyl-4-hydroxy-2-oxo-1,2-dihydroquinoline-3-carboxamide] |  | no | 2.0% | 97.0 |  |  |  | 4.07 | 
13 | CCCC(=O)Nc1c(O)c2ccccc2n(C)c1=O [Compound 16a, N-(4-hydroxy-1-methyl-2-oxo-1,2-dihydroquinolin-3-yl)butyramide] |  | 24.0% | 31.0% | 83.0 |  |  |  | 4.09 | 
14 | Cc1ccc(C(=O)Nc2c(O)c3ccccc3n(C)c2=O)cc1 [Compound 16b, N-(4-hydroxy-1-methyl-2-oxo-1,2-dihydroquinolin-3-yl)-4-methylbenzamide] |  | 27.0% | 32.0% | 88.0 |  |  |  | 4.00 | 
15 | Cn1c(=O)c(NC(=O)c2ccccc2O)c(O)c2ccccc21 [Compound 16c, 2-hydroxy-N-(4-hydroxy-1-methyl-2-oxo-1,2-dihydroquinolin-3-yl)benzamide] |  | 25.0% | 28.0% | 88.0 |  |  |  | 4.08 | 
16 | C[C@H](Cc1ccc(O)c(O)c1)[C@@H](C)Cc1ccc(O)c(O)c1 [NDGA, nordihydroguaiaretic acid, reference compound] |  | 83.0% | 94.0% |  |  |  |  |  | 
17 | Cc1c(C)c2c(c(C)c1O)CCC(C)(C(=O)O)O2 (stereo not shown) [Trolox, reference compound] |  |  |  | 88.0 |  | 93.0% | 82.0 |  | 
